From paper PMC3679022, “A Cancer Specific Cell-Penetrating Peptide, BR2, for the Efficient Delivery of an scFv into Cancer Cells” (PLoS ONE, 2013) come the findings set out here.

Data set [1] relates to cancer cells (HeLa, HCT116 and B16/F10). In words: Confocal laser scanning microscopy of FITC-labeled peptide uptake, cancer cells. The format is cell-based, human, mouse. As to conditions: FITC-labeled peptide 5 µM, 30 min, 37°C, live unfixed cells. How it is done: (§1) To investigate the cell-penetrating ability and the intracellular distribution of the internalized peptides, live confocal microscopy was performed on three cancer lines (HeLa, HCT116 and B16/F10) and three normal cell lines (HaCat, BJ and NIH 3T3). Briefly, cells (2×10^5) were plated on a glass coverslip placed in a 6-well plate, grown overnight, and then incubated with FITC-labeled peptides (5 µM for each cell line) for 30 min. The cells were then rinsed three times with phosphate buffered saline (PBS, pH 7.4), and mounted on microscope slides with fluorescence mounting solution (Dako Corp, Carpinteria, CA). Colocalization of BR2 with lysosomes was observed by using LysoTracker Red DND-99 (Molecular Probe, Eugene, OR). To avoid the effects of fixation artifacts, involving both methanol and paraformaldehyde, cells were not fixed, [27]. The distribution of FITC-labeled peptides was analyzed using a confocal scanning laser Zeiss LSM 510 microscope (Jena, Germany) equipped with a 40× and 20× objective. Fluorophores were excited with an argon laser (488 nm) for FITC and a HeNe laser (543 nm) for LysoTracker Red.
(§2) (B,C) In vitro cytotoxicity of peptides.

In data set [2] the test system is normal cells (HaCat, BJ and NIH 3T3). The experiment in a line: Confocal laser scanning microscopy of FITC-labeled peptide uptake, normal cells. To be noted: FITC-labeled peptide 5 µM, 30 min, 37°C, live unfixed cells. The format is cell-based, human, mouse. How it is done: as §1, §2
The test system of data set [3] is cancer cells (HeLa, HCT116 and B16/F10). It is filed as cell-based, human, mouse. To be noted: flow cytometry. How it is done: (§3) To evaluate the internalization of FITC-labeled peptides, HeLa cells were seeded onto 12-well plates at a density of 2×10^5 cells per well and incubated for 24 h. FITC-labeled peptides, at various concentrations ranging from […], were then incubated with the cells for 30 min at 37°C. To compare the cellular uptake of peptides, cancer and normal cells were treated with FITC-labeled peptides (each, 10 µM) and incubated for 30 min at 37°C. Following the incubation, cells were washed three times with ice-cold PBS to remove excess extracellular complexes. Next, the cells were treated with trypsin (1 mg/ml) for 10 min to remove any remaining peptides bound to the cell surface. After trypsinization, the cells were collected by centrifugation (1,000×g for 5 min), resuspended with 500 µl ice-cold 2% FBS/PBS containing propidium iodide (PI), and then immediately analyzed (10,000 events/sample) by fluorescence activated cell sorting (FACS).
(§4) For all of these experimental conditions, flow cytometry analyses were performed with live cells using a Becton Dickinson FACSCalibur flow cytometer (BD Biosciences, San Diego, CA). In each case, the fluorescence of 10,000 viable cells was acquired. Viable cells were gated based on a sideward and forward scatter. […] The statistical significance was evaluated by Student’s t-test at a 95% confidence interval. […]
A general note: In flow cytometry, cells or beads pass a laser one at a time.

Data set [4] relates to normal cells (HaCat, BJ and NIH 3T3). The experiment in a line: Flow cytometry of FITC-labeled peptide uptake, normal cells. As to conditions: FITC-labeled peptide 10 µM, 30 min, 37°C, trypsin 1 mg/ml 10 min before FACS, 10,000 events. It is filed as cell-based, human, mouse. Here is the method: as §3, §4
Data set [5] deals with HCT116 cells (K-ras mutated cells). The experiment in a line: Cell proliferation assay (MTT). It is filed as cell-based, human. Also noted: dose or concentration left out as unconfirmed. To be noted: same concentrations as fusion proteins (Fig. S4:), 24 h. How it is done: To assess the anti-proliferative activity of peptides and anti-Ras scFv fusion proteins, HCT116 cells (K-ras mutated cells) were seeded in 96-well plates at a density of 2×10^4 cells/well in 100 µL of DMEM supplemented with 10% FBS and cultured for 24 h at 37°C. […] Cell viability was measured with the 3-(4,5-dimethylthiazol-2-yl)-2,5-diphenyl tetrazolium bromide (MTT) assay using the CellTiter 96® Non-radioactive Cell Proliferation assay kit (Promega, Madison, WI) according to the manufacturer’s instructions. The absorbance of the solution was measured at 570 nm using a Microplate Reader (Bio-Rad). Cell viability was expressed as the percentage of viable cells treated with scFv or peptide-scFv fusion proteins compared to the PBS-treated control (100%). All experiments were done in triplicate.
Figure 4 Intracellular uptake of peptides and anti-Ras scFv fusion proteins and their anti-proliferative activity. […] (B) Protein uptake was analyzed by Western blotting of fractionated lysates from HCT116 cells treated with PBS, anti-Ras scFv, BR2- or Tat-scFv fusion protein (each, 2 µM) at 37°C for 2 h. […] Cell proliferation was determined using the MTT assay. […]
HCT116 cells were seeded in 96-well plates at a density of 2×10^4 cells/well in 100 μl of DMEM supplemented with 10% FBS and cultured for 24 h at 37°C. […] The absorbance of the solution was measured at 570 nm using a Microplate Reader (Bio-Rad). […]

On to RAGLQFPVGRLLRRLLR [BR2], for which the “cellular uptake (confocal microscopy)” value was “readily internalized” in data set [1] and “very poorly internalized” in data set [2]. In data set [3], the “transduction efficiency into cancer cells versus normal cells” value is recorded as “about 4 fold”. Besides, the “percentage of fluorescence-positive cells (cells that internalized peptide)” value in data set [4] is listed as 23–34%. Further, in data set [5], the “anti-proliferative activity of peptide alone” value is listed as “did not show any detectable inhibitions”.
